One block for each molecule: values may come before it.
Columns and labels:
total DNMT = test: Total DNMT inhibition, colorimetric assay in HCT-116 cells; type: cell-based, human; settings: 24 h
Description: Total DNMT activity was measured in the colon cancer cell line HCT-116. The assay was performed using the EpiQuick^TM DNA Methyltransferase Activity/Inhibition Assay Kit (Epigentek, Brooklyn, NY, USA). […] Assays were performed three times in triplicate.

[1] = tested on: human colon cancer cell line HCT-116; test: In vitro growth inhibition (CellTiter-Glo), HCT-116; type: cell-based; settings: HCT 116 TP53(-/-), read-out: GI50 (concentration of drug that inhibited 50% of cell growth), 72 h exposure
Description: Cells were grown in an appropriate medium for the cell line of interest; 96 well plates of each cell line were seeded with 5000 cells per well and left overnight. Drug exposed cells were incubated at 37 °C for 72 h. At the end of the 72 h exposure period, plates were removed for the CellTiter-Glo® assay. Luminescence was recorded on a Synergy 4.0. Assays were performed in triplicate.

RNR = target: T1, RNR (Homo sapiens, UniProt P23921); test: RNR inhibition whole cell assay (HPLC of nucleotides from HeLa cell extracts); type: cell-based; settings: 50 µM, 16 h
T1 construct: endogenous in cells; host or cells: HeLa
T1 sequence (P23921 1-792): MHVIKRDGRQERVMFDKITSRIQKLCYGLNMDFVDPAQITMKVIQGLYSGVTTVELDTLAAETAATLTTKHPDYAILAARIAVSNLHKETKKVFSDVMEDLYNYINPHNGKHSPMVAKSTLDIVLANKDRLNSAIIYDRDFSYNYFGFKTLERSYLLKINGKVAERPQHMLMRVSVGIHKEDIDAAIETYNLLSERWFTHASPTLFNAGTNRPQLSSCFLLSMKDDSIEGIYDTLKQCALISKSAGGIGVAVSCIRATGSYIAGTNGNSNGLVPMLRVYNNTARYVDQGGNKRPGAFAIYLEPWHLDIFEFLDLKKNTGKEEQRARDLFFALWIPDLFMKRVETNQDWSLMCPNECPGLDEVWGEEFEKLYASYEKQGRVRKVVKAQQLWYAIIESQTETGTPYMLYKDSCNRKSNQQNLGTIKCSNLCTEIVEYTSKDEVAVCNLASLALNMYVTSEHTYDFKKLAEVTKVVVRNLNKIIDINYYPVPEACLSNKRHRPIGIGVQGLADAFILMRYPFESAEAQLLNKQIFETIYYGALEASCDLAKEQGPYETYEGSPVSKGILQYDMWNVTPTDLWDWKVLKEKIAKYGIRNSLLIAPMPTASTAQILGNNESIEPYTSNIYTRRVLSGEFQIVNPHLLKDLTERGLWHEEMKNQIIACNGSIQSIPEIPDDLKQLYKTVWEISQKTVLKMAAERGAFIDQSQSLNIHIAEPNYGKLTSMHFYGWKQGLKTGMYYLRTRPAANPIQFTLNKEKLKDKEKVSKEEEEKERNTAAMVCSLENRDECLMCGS
T1 sequence (P31350 1-389 partner): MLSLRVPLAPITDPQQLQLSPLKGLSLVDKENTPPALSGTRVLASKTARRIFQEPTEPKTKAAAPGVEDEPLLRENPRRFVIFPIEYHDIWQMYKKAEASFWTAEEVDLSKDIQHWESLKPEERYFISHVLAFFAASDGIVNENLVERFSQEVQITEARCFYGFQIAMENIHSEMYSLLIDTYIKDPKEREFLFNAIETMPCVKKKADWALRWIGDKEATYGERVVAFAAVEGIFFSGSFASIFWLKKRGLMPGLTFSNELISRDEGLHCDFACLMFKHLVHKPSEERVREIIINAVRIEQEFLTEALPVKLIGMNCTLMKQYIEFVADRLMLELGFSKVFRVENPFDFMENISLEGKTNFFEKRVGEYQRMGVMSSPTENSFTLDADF
Source text: Gemcitabine was used as a positive control.
The method used to extract and quantitate nucleotides followed previously reported procedures.

in vivo = settings: mouse, iv, 5 mg/kg
Description: Three mice were placed in a dose group on the first day of treatment (Day 1). […] Animals were observed daily for mortality and moribundity. Body weights were measured daily starting on day 1.

[2] = reported for decitabine; cited from earlier work

- GI50 [1]: 620 nM
Structure (SMILES): Nc1ncn([C@@H]2O[C@H](CO)[C@@H](O)[C@H]2O)c(=O)n1 [5-azacytidine]
- inhibition of total DNMT (total DNMT; 1 µM, mean of 3 experiments): 19.2%
- inhibition of total DNMT (total DNMT; 10 µM): 48.6%

- ADP concentration (RNR): 15,639
- ATP concentration (RNR): 26,296
- CTP concentration (RNR): 1297
- GTP concentration (RNR): 2036
- UTP concentration (RNR): 4801
- dATP, peak area (RNR): 0 AU
- dGDP, peak area (RNR): 7.95 AU
- dTDP, peak area (RNR): 43.4 AU
- dUTP, peak area (RNR): 5.3 AU
Structure (SMILES): Nc1ccn([C@@H]2O[C@H](CO)[C@@H](O)C2(F)F)c(=O)n1 [Gemcitabine, gemcitabine, reference compound]

Structure (SMILES): Nc1ncn([C@H]2C[C@H](O)[C@@H](CO)O2)c(=O)n1 [decitabine, 5-aza-2′-deoxycytidine]
- MTD at 3 weeks (in vivo): < 5 mg/kg
- half-life [2]: 30 min
